One experiment addresses T1, NS3-NS4A protein WT (Hepatitis C virus genotype 1b, UniProt Q9WMX2).
T1 construct: TEV protease cleavage site (N); made in house; host or cells: E. coli (pET11a)
Kind of experiment: In vitro enzyme assay, Ki, full length NS3/NS4A protein WT. The class given is biochemical, HCV genotype 1b. The source says: (§1) DNA encoding the NS3-NS4A coding region of HCV genotype 1b, that includes a 28-residue N-terminal sequence containing a hexahistidine tag and a TEV protease cleavage (Pause, A. et al. (2003) J. Biol. Chem. 278: 20374–20380) was amplified by PCR and then subcloned into the pET11a bacterial expression vector. Amino acid substitutions A156T and D168V were introduced into the NS3-NS4A coding region using standard site-directed mutagenesis procedures.
(§2) The NS3 protease domain (harboring A156T or D168V or R155Q mutations) were expressed in E. coli and purified as previously described (LaPlante, S. R. et al (1999) J. Biol. Chem. 274: 18618–18624). The NS3-NS4A proteins with either A156T or D168V mutation were also expressed in E. coli and the cell paste was resuspended in 5 mL of lysis buffer (50 mM sodium phosphate, pH 7.5, 20% glycerol, 1 mM EDTA, 0.5% Triton X-100, 0.5 M NaCl) per gram of cells, treated with DNase I, then clarified by a 30-min centrifugation at 150,000×g; the supernatant was diluted 2-fold in 50 mM sodium phosphate, pH 7.5, 0.5 M NaCl and imidazole was added to a final concentration of 25 mM. The NS3-NS4A complex solution was purified by successive steps on a Hi-Trap Ni^+2-chelating column, and poly(U)-Sepharose affinity column previously equilibrated in 50 mM sodium phosphate, pH 7.0, 10% glycerol, 0.2 M NaCl, 0.05% n-dodecyl-β-D-maltoside, 10 mM β-mercaptoethanol. The enzyme was eluted in the same buffer containing 2 M NaCl. The isolated enzymes were stored at −80° C.
(§3) Ki determination—The inhibition constant (Ki) was determined using the depsipeptide fluorogenic substrate anthranilyl-DDIVPAbu[C(O)—O]AMY(3-NO2)TW-OH. The cleavage reaction was continuously monitored at 23° C. on a BMG POLARstar® Galaxy fluorometer, equipped with excitation and emission filters of 320 and 405 nm respectively. […] IC50's were obtained from a non-linear curve fit using the Hill model applied to the % inhibition-concentration data and calculated through the use of SAS (Statistical Software System, SAS Institute Inc., Cary, N.C.).

The target in the next experiment is T2, NS3-NS4A protein D168V (Hepatitis C virus genotype 1b, UniProt Q9WMX2, D1194V).
T2 construct: TEV protease cleavage site (N); made in house; host or cells: E. coli (pET11a)
The experiment can be described thus: In vitro enzyme assay, Ki, full length NS3/NS4A protein D168V. The class given is biochemical, HCV genotype 1b.
From the text: as §1, §2, §3

A further experiment concerns the target T3, NS3-NS4A protein A156T (Hepatitis C virus genotype 1b, UniProt Q9WMX2, A1182T).
T3 construct: TEV protease cleavage site (N); made in house; host or cells: E. coli (pET11a)
The experiment can be described thus: In vitro enzyme assay, Ki, full length NS3/NS4A protein A156T. Type of experiment: biochemical, HCV genotype 1b.
From the text: as §1
(§4) The NS3 protease domain (harboring A156T or D168V or R155Q mutations) were expressed in E. coli and purified as previously described (LaPlante, S. R. et al (1999) J. Biol. Chem. 274: 18618–18624). […]
as §3

In experiment [1] the test system is bicistronic subgenomic HCV RNA replicon (S22.3 cell line). Kind of experiment: HCV RNA replicon cell culture EC50 of the inhibitors used for selection. Type of experiment: cell-based. As to conditions: EC50 stated for the inhibitor used in resistance selection, replicon cells. From the text: The method described by Lohmann et al. (1999, Science 285:110) was used to mimic the replication of subgenomic HCV RNA in a system that is dependent on the function of HCV non-structural proteins and enzymes. This HCV RNA replicon system incorporates two cistrons: one encoding the HCV non-structural region and the second encoding a selectable neomycin resistant marker (i.e. gene encoding neomycin phosphotransferase). As one of skill in the art will appreciate, the second cistron may encode any marker suitable for selection purposes. Cell lines harboring such bicistronic, subgenomic HCV RNA, such as the S22.3 cell line, are described by Kukolj and Pause (see WO 02/052015, the contents of which are hereby incorporated by reference). These cell lines are useful in evaluating the efficacy and potency of potential anti-HCV therapeutics that inhibit one or more of the HCV non-structural proteins.
As shown, Huh-7 cells (8×10^6 cells) were transfected with the bicistronic subgenomic HCV RNA using transfection methods well-established in the art. Transfected Huh-7 cells were selected by growth in neomycin-containing media (0.5 mg/ml neomycin). Specifically, transfected cells replicate the RNA that produces neomycin phosphotransferase thereby rendering the cells resistant to the cytotoxic effect of neomycin. Mutated HCV replicons as described in WO 02/052015 can also be used in accordance with the present method to increase RNA replication and efficiency of replicon establishment.
inhibitor A=cyclopropa[e]pyrrolo [1,2-a][1,4]diazacyclopentadecine-14a(5H)-carboxylic acid, 6-[[(cyclopentyloxy) carbonyl]amino]-1,2,3,6,7,8,9,10,11,13a, 14,15,16,16a-tetradecahydro-2-[[7-methoxy-2-[2-[(1-methylethyl)amino]-4-thiazolyl]-4-quinolinyl]oxy]-5,16-dioxo-, (2R,6S, 12Z, 13aS, 14aR, 16aS), which is described as compound #822 in WO 00/59929, the contents of which is hereby incorporated by reference. The colonies were grown in the presence of increasing concentrations of this inhibitor (EC50 of 2 nM) ranging from 2 nM to 2000 nM.
(A replicon is a self-replicating genome or part of one, used to study replication in cells.)

The subject of experiment [2] is WT HCV subgenomic replicon in Huh-7 cells. The experiment can be described thus: Inhibitor EC50 in WT replicon cell line. Type of experiment: cell-based. As to conditions: Hepatitis C virus.
The subject of experiment [3] is NS3 A156T mutant HCV subgenomic replicon in Huh-7 cells. Kind of experiment: Inhibitor EC50 in NS3 A156T mutant replicon cell line. Type of experiment: cell-based. As to conditions: Hepatitis C virus, Huh-7, read-out: EC50, A156T. The source says:
(§5) Specific isogenic HCV subgenomic replicon cDNAs individually containing only one of the inhibitor-resistant mutations, i.e. (in this example: A156T; or A156V; or D168V; or D168G) were cloned and corresponding in vitro transcribed RNA of these modified bi-cistronic replicons were generated. The mutant-encoding RNAs were used to construct mutant-containing replicon cell lines in naïve Huh-7 cells as described previously for other HCV replicons. […] They were also used to determine the level of inhibition of the mutant inhibitor-resistant cell lines in the presence of an unrelated HCV NS5B polymerase inhibitor or alpha-interferon. Using the assay described in WO 03/010141 (Example 48) the EC50 of each inhibitor was determined using the mutant cell lines.

Experiment [4] deals with NS3 A156V mutant HCV subgenomic replicon in Huh-7 cells. Kind of experiment: Inhibitor EC50 in NS3 A156V mutant replicon cell line. Type of experiment: cell-based. The settings on record: Hepatitis C virus, Huh-7, read-out: EC50, A156V.
From the text: as §5

The subject of experiment [5] is NS3 D168V mutant HCV subgenomic replicon in Huh-7 cells. The experiment can be described thus: Inhibitor EC50 in NS3 D168V mutant replicon cell line. Type of experiment: cell-based. As to conditions: Hepatitis C virus, Huh-7, read-out: EC50, D168V.
From the text: as §5

For experiment [6], the system named is NS3 D168G mutant HCV subgenomic replicon in Huh-7 cells. Kind of experiment: Inhibitor EC50 in NS3 D168G mutant replicon cell line. The settings on record: Hepatitis C virus, Huh-7, read-out: EC50, D168G. Type of experiment: cell-based.
From the text: as §5

The target in experiment [7] is T4, NS3 protease (1-180) WT-NS4A peptide complex (Hepatitis C virus genotype 1b, UniProt Q9WMX2).
T4 construct: the NS3 protease (1–180) coding region for wild-type; made in house; host or cells: bacterial expression vector (E. coli)
Kind of experiment: In vitro enzyme assay, Ki, NS3 protease-NS4A peptide complex WT. The class given is biochemical, HCV.
From the text: (§6) Alternatively, the NS3 protease (1–180) coding region for wild-type with the sequence ASKKKK at the C-terminus was cloned into a bacterial expression vector and amino acid substitutions A156T, D168V and R155Q were introduced as described above.
as §4, §3

The target in experiment [8] is T5, NS3 protease (1-180) A156T-NS4A peptide complex (Hepatitis C virus genotype 1b, UniProt Q9WMX2, A1182T).
T5 construct: the NS3 protease (1–180) coding region for wild-type; made in house; host or cells: E. coli
Kind of experiment: In vitro enzyme assay, Ki, NS3 protease-NS4A peptide complex A156T. The class given is biochemical, HCV. As to conditions: calculated Ki from IC50.
From the text: as §6, §4, §3

Experiment [9] deals with T6, NS3 protease (1-180) D168V-NS4A peptide complex (Hepatitis C virus genotype 1b, UniProt Q9WMX2, D1194V).
T6 construct: the NS3 protease (1–180) coding region for wild-type; made in house; host or cells: E. coli
Kind of experiment: In vitro enzyme assay, Ki, NS3 protease-NS4A peptide complex D168V. The class given is biochemical, HCV. As to conditions: calculated Ki from IC50.
From the text: as §6, §4, §3

Experiment [10] has as its target T7, NS3 protease (1-180) R155Q-NS4A peptide complex (Hepatitis C virus genotype 1b, UniProt Q9WMX2, R1181Q).
T7 construct: the NS3 protease (1–180) coding region for wild-type; made in house; host or cells: E. coli
Kind of experiment: In vitro enzyme assay, Ki, NS3 protease-NS4A peptide complex R155Q. Type of experiment: biochemical, HCV. As to conditions: calculated Ki from IC50.
From the text: as §6, §4, §3

Drawing on US7208309B2, “Inhibitor-resistant HCV NS3 protease” (priority 2002, dated 2007), this text covers Ki and EC50 for five compounds.

SMILES strings stand for the structures. Like-named read-outs stand apart in the source and are kept apart here. Numbered stars: 1 amine (or outer) side, 2 acyl side, 3 side chain; on linkers, the order of the positions; unused ones are H or OH. Square brackets hold non-standard residues; d marks the D form. Peptide text beside a SMILES is read from it. * marks the point of attachment. Hyp(2-Ph-quinolin-4-yl) = O=C(O)[C@@H]1C[C@@H](Oc2cc(-c3ccccc3)nc3ccccc23)CN1; X1 = C=CC1C[C@]1(N[*:1])C(=O)[*:2]; Hyp = O=C(O)[C@@H]1C[C@@H](O)CN1; Chg = N[C@H](C(=O)O)C1CCCCC1; Tle = CC(C)(C)[C@H](N)C(=O)O; Nva = CCC[C@H](N)C(=O)O; Bn = c1ccc(C*)cc1

As usually defined, the Ki is a measure of affinity in units of concentration, obtained from inhibition or displacement. As a reminder, the EC50 is the concentration giving half of the maximal effect.

For `CCC[C@H](NC(=O)[C@@H]1C[C@@H](OCc2ccccc2)CN1C(=O)[C@@H](NC(=O)[C@@H](NC(=O)[C@@H](CCC(=O)O)NC(=O)[C@H](CC(=O)O)NC(C)=O)[C@@H](C)CC)C(C)C)C(=O)O` [Compound E] (Ac-D[dE]IV[Hyp](Bn)[Nva]-OH), the Ki came out at 1600 nM on NS3-NS4A protein WT and 8100 nM on NS3-NS4A protein D168V (read-out: Ki, D168V).
With `C=CC1C[C@]1(NC(=O)[C@@H]1C[C@@H](Oc2cc(-c3ccccc3)nc3ccccc23)CN1C(=O)[C@@H](NC(=O)[C@@H](NC(=O)[C@@H](CCC(=O)O)NC(=O)[C@H](CC(=O)O)NC(C)=O)C1CCCCC1)C(C)(C)C)C(=O)O` (some centres unmarked) [Compound F] (Ac-D[dE][Chg][Tle][Hyp(2-Ph-quinolin-4-yl)][X1]-OH), the Ki came out at 0.047 nM on NS3-NS4A protein WT; 29 nM on NS3-NS4A protein A156T (read-out: Ki, A156T); 12 nM on NS3-NS4A protein D168V (read-out: Ki, D168V).
For the compound `COc1ccc2c(O[C@@H]3C[C@H]4C(=O)N[C@]5(C(=O)O)C[C@H]5/C=C\CCCCC[C@H](NC(=O)OC5CCCC5)C(=O)N4C3)cc(-c3csc(NC(C)C)n3)nc2c1` [inhibitor A, cyclopropa[e]pyrrolo [1,2-a][1,4]diazacyclopentadecine-14a(5H)-carboxylic acid, 6-[[(cyclopentyloxy)carbonyl]amino]-1,2,3,6,7,8,9,10,11,13a, 14,15,16,16a-tetradecahydro-2-[[7-methoxy-2-[2-[(1-methylethyl)amino]-4-thiazolyl]-4-quinolinyl]oxy]-5,16-dioxo-, (2R,6S, 12Z, 13aS, 14aR, 16aS)], the EC50 in experiment [1] (Hepatitis C virus) is 2 nM; in experiment [2], 0.9 nM; in [3] it was 547 nM; in experiment [4] it was 324 nM; in [5], 735 nM; in experiment [6], 23 nM. Moreover, the Ki was 1.6 nM on NS3-NS4A protein WT; 870 nM on NS3-NS4A protein A156T (calculated Ki from IC50, read-out: Ki, A156T (calculated Ki from IC50)); 520 nM on NS3-NS4A protein D168V (calculated Ki from IC50, read-out: Ki, D168V (calculated Ki from IC50)); 5.6 nM in experiment [7]; 800 nM in experiment [8]; 970 nM in experiment [9]. In addition, the Ki in [10] is 220 nM.
Turning to `C=C[C@@H]1C[C@]1(NC(=O)[C@@H]1C[C@@H](Oc2cc(-c3csc(NC(C)=O)n3)nc3cc(OC)ccc23)CN1C(=O)[C@@H](NC(=O)OC1CCCC1)C(C)(C)C)C(=O)O` [inhibitor B, cyclopropane carboxylic acid, N-[(cyclopentyloxy)carbonyl]-3-methyl-L-valyl-(4R)-4-[[2-[2-(acetylamino)-4-thiazolyl]-7-methoxy-4-quinolinyl]oxy]-L-prolyl-1-amino-2-ethenyl-, (1R,2S)-], in [1], the EC50 is 40 nM.
In [1], `COc1ccc2c(O[C@@H]3C[C@H]4C(=O)N[C@]5(C(=O)O)C[C@H]5/C=C\CCCCC[C@H](NC(=O)OC(C)(C)C)C(=O)N4C3)cc(-c3csc(NC(C)=O)n3)nc2c1` [inhibitor C, Cyclopropa[e]pyrrolo[1,2-a][1,4]-diazacyclopentadecine-14a(5H)-carboxylic acid, 2-[[2-[2-(acetylamino)-4-thiazolyl]-7-methoxy-4-quinolinyl]oxy]-6-[[(1,1-dimethylethoxy)carbonyl]amino]-1,2,3,6,7,8,9,10,11,13a,14,15,16,16a-tetradecahydro-5,16-dioxo-, (2R,6S, 12Z, 13aS, 14aR, 16aS)-] returned an EC50 of 5 nM.
